The test system of this experiment is Rattus norvegicus. In words: Effective dose required to inhibit sorbitol accumulation in sciatic nerves of streptozotocinized rats administered perorally. Type of experiment: functional, Sciatic nerve.

Structures are written as SMILES.

Usually ED50 stands for the dose at which the effect has come halfway, by size or by number of responders. A lower ED50 goes with greater potency. As to `O=C1NC(=O)[C@@]2(CCOc3ccc(F)cc32)N1` (stereo in doubt; form 1) [SORBINIL], the 50% effective dose (ED50) came out at 0.25 mg/kg.
For the molecule `O=C1NC(=O)[C@@]2(CCOc3ccc(F)cc32)N1` (stereo in doubt; form 2) [SORBINIL], the ED50 was found to be 25 mg/kg.

The record behind these values is ChEMBL document CHEMBL1123138 (J Med Chem, 1985).
